Results published in patent publication US20260034192A1 (University of Saskatchewan, priority 2022, published 2026).
“And” between values parts separate entries of the source, which are not always exact repeats. Equal entries are not always repeated. Square brackets hold non-standard residues; d marks the D form. Peptide text beside a SMILES is read from it. * marks the point of attachment. dPhe(4-NHCONH2) = NC(=O)Nc1ccc(C[C@@H](N)C(=O)O)cc1; Dihydroorotyl(S) = O=C1C[C@@H](C(=O)*)NC(=O)N1; dPhe(4-NH2) = Nc1ccc(C[C@@H](N)C(=O)O)cc1; dPhe(4-Cl) = N[C@H](Cc1ccc(Cl)cc1)C(=O)O; Phe(4-NH2) = Nc1ccc(C[C@H](N)C(=O)O)cc1; d2Nal = N[C@H](Cc1ccc2ccccc2c1)C(=O)O; Lys(iPr) = CC(C)NCCCC[C@H](N)C(=O)O; NMeY = CN[C@@H](Cc1ccc(O)cc1)C(=O)O; d3Pal = N[C@H](Cc1cccnc1)C(=O)O

Experiments:
[1] = test system: GnRH-induced plasma LH levels and ovulation; experiment: GnRH challenge in heifers pre-treated with GnRH antagonists: plasma LH and ovulation (Example 10); type: in vivo, cattle; details: for Plasma LH response to GnRH challenge: heifers pre-treated with antagonist 60 minutes before GnRH injection; for Ovulation (Yes/No) within 48 hr of GnRH treatment / Plasma LH concentration at 60 minute, group Mean / Plasma LH concentration at 120 minute, group Mean / Plasma LH concentration at −60 minute, group Mean / Plasma LH concentration at 0 minute, group Mean: heifers; for Ovulation (Yes/No) within 48 hr of GnRH treatment / Dominant follicle diameter (mm) 48 hr after GnRH Injection / Dominant follicle diameter (mm) at GnRH injection: 3 mg antagonist 60 min before GnRH; for Plasma LH concentration at 60 minute, group Mean / Plasma LH concentration at 120 minute, group Mean / Plasma LH concentration at 60 minute / Plasma LH concentration at 120 minute: after GnRH injection; for Plasma LH concentration at −60 minute, group Mean / Plasma LH concentration at −60 minute: time of 3 mg GnRH antagonist injection; for Plasma LH concentration at 0 minute, group Mean / Plasma LH concentration at 0 minute: time of GnRH injection; for Dominant follicle diameter (mm) 48 hr after GnRH Injection / Dominant follicle diameter (mm) at GnRH injection / Plasma LH concentration at 60 minute / Plasma LH concentration at 120 minute / Plasma LH concentration at −60 minute / Plasma LH concentration at 0 minute: individual heifers; for Plasma LH concentration at 60 minute / Plasma LH concentration at 120 minute / Plasma LH concentration at 0 minute: 3 mg antagonist at −60 min; for Plasma LH concentration at −60 minute: 60 mins before GnRH
Description: Methods: Pubertal heifers (n=10) with a functional CL were selected at the Federal University of Santa Maria. Heifers were administered an intramuscular (i/m) injection of prostaglandin F2a analog (PGF; Lutalyse 5 ml or Estrumate 2 ml) to induce CL regression. Heifers were randomly placed into 4 treatment groups at the time of PGF injection: Trt1 (n=2, 3 mg of Abarelix); Trt2 (n=2, 3 mg of Degarelix), Trt3 (n=2, 3 mg of Relugolix) and Trt 4 (n=4; Cetrorelix 3 mg). Heifers were treated with these GnRH antagonists 1.5 days (36 hr) after the PGF injection and the GnRH antagonist treatment time point was defined as −60 mins. Heifers were treated with GnRH ([…] of Fertagyl i/m) at 0 mins to induce ovulation. Jugular venipuncture plasma samples were collected every 60 minutes for 3 hours (from −60 min to 120 minutes, with t=0 min when GnRH is administered). Plasma samples were kept at 4C overnight and LH analysis was performed the next day using a bovine-specific ELISA commercial kit. Transrectal ultrasonography was conducted to the time of GnRH injection (Time 0 hr) and 2 days later (48 hr after GnRH injection) to record the size of dominant follicle and to detect ovulation after treatment.

bovine pituitary cells = experiment: GnRH-induced LH secretion of bovine pituitary cells in vitro (Example 9); type: cell-based; details: for LH conc in medium: 300 μg cetrorelix, 340 μg Degarelix, 300 ug Abarelix, 130 μg Relugolix
Description: Methods: The heads of mature, non-pregnant cows (n=4) were collected from a local abattoir and the pituitary glands were dissected within 60 minutes of slaughter. Immediately following the dissection, the pituitaries were submerged into ice-cold collection medium. The pituitaries were washed 3 times in collection media and the neurohypophysis was dissected from the adenohypophysis. Using a scalpel, the adenohypophysis (anterior pituitary) was sliced into 1 mm×1 mm pieces and transferred to a 50 mL falcon tube containing DMEM medium with 0.5% BSA. The tissue pieces were washed by manually agitating the tube for 1 minute. The tissue pieces were allowed to settle to the bottom of the tube, then the supernatant was discarded. The macerated pieces were transferred to a 15 mL falcon tube with the dissociation medium and incubated at 37° C. for 60 minutes. Every 10 minutes the tube was vortexed for 1 minute to ensure the tissue was completely dissociated. The dissociation media was inactivated using DMEM with 10% SFB then manually agitating the tube for 1 minute. The dissociated cells were placed in a 40 μm cell strainer to remove the undigested tissue and placed into two 15 mL falcon tubes. The cells were centrifuged at 200×g for 10 minutes and the supernatant was discarded. The cells were washed three times by resuspending in DMEM solution with red blood cell lysing buffer followed by centrifuged at 200×g for 10 minutes. Then the cells were washed with DMEM solution and centrifuged at 200×g for 10 minutes. Following the last centrifugation, the cells were resuspended in DMEM, and the trypan blue test was used to determine the cell count and assess viability. DMEM with 10% fetal bovine serum (FBS) was treated with 10% charcoal-dextran and passed through a 0.2 μm filter. The cells were then plated in a 24-well tissue culture plate with a concentration of 1×10^6 viable cells per well and incubated at 37° C. for 24 hours. The following day, to starve the cells, the culture media was replaced with DMEM without FBS and left to incubate for another 24 hours.
Treatments: Based on the results from the pilot study, the selected concentration for Cetrorelix (cetrorelix acetate) was 300 μg. The cetrorelix was dissolved in trace levels of DMSO then dissolved in ultrapure water. To standardize the treatments, the nanomole concentration of each GnRH antagonist were matched with the cetrorelix nanomole concentration. The final concentration used for further experiments were: 300 μg for cetrorelix, 340 μg for Degarelix (Degarelix acetate), 300 ug for Abarelix (Abarelix acetate). Both degarelix and abarelix were dissolved ultrapure water. The equivalent Relugolix nanomole concentration was 130 μg which was dissolved in methanol. Treatment cells were preincubated for 60 minutes with either Cetrorelix, Degarelix, Relugolix or Abarelix. Following the preincubation, the cells were incubated for 30 minutes with either 1 nM or 10 nM of GnRH (Gonadorelin, Fertagyl, Merck Animal Health). GnRH doses were based on pituitary study by Paolicchi et al. 1999). The media were collected and centrifuged at 200×g for 10 minutes to remove the cells. Positive (Control) group was only treated with 1 nM and 10 nM of GnRH to determine the maximum LH secretion. LH concentrations in the culture medium was measured by a commercial bovine specific ELISA kit and reported as mIU/ml of medium.

dominant follicle = details: acyline-treated animals, multiple injections from just before ovulation; cited from earlier work
[2] = biological target: GnRH receptor on bovine pituitary gonadotrophs (bovine) (UniProt P32236); experiment: cell-based or functional assay
Chain of UniProt P32236 (P32236 whole entry): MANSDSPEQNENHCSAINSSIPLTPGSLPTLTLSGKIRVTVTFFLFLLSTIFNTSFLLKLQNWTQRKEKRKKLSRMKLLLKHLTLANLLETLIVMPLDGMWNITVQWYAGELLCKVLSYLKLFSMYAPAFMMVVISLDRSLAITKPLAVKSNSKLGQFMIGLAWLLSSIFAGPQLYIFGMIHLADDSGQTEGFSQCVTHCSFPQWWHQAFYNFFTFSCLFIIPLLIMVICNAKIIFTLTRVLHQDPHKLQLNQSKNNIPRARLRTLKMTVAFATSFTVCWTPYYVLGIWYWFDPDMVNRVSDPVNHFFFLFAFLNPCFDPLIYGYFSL

[3] = challenged with 1 nM GnRH 30 minutes after 60 minutes preincubation
[4] = challenged with 10 nM GnRH 30 minutes after 60 minutes preincubation

Row | Compound | Plasma LH response to GnRH challenge [1] | Ovulation (Yes/No) within 48 hr of GnRH treatment [1] | Plasma LH concentration at 60 minute, group Mean [1] [mIU/ml] | Plasma LH concentration at 120 minute, group Mean [1] [mIU/ml] | Plasma LH concentration at −60 minute, group Mean [1] [mIU/ml] | Plasma LH concentration at 0 minute, group Mean [1] [mIU/ml] | Dominant follicle diameter (mm) 48 hr after GnRH Injection [1] | Dominant follicle diameter (mm) at GnRH injection [1] | Plasma LH concentration at 60 minute [1] | Plasma LH concentration at 120 minute [1] | Plasma LH concentration at −60 minute [1] | Plasma LH concentration at 0 minute [1] | LH conc in medium (bovine pituitary cells; [3]) [mIU/mL] | LH conc in medium (bovine pituitary cells; [4]) [mIU/mL] | LH conc (mIU/mL) in medium from bovine pituitary cells in vitro, preincubated 60 min with the antagonist, then challenged 30 min with 1 nM GnRH (control without antagonist: 2.01) [2] [mIU/mL] | LH conc (mIU/mL) in medium from bovine pituitary cells in vitro, preincubated 60 min with the antagonist, then challenged 30 min with 10 nM GnRH (control without antagonist: 2.49) [2] [mIU/mL] | further results
1 | CC(=O)N[C@H](Cc1ccc2ccccc2c1)C(=O)N[C@H](Cc1ccc(Cl)cc1)C(=O)N[C@H](Cc1cccnc1)C(=O)N[C@@H](CO)C(=O)N(C)[C@@H](Cc1ccc(O)cc1)C(=O)N[C@H](CC(N)=O)C(=O)N[C@@H](CC(C)C)C(=O)N[C@@H](CCCCNC(C)C)C(=O)N1CCC[C@H]1C(=O)N[C@H](C)C(N)=O [Abarelix, N-acetyl-3-(2-naphthyl)-D-alanyl-4-chloro-D-phenylalanyl-3-(3-pyridyl)-D-alanyl-L-seryl-N-methyl-L-tyrosyl-D-asparagyl-L-leucyl-N6-isopropyl-L-lysyl-L-prolyl-D-alaninamide] (Ac-[d2Nal][dPhe(4-Cl)][d3Pal]S[NMeY][dN]L[Lys(iPr)]P[dA]-NH2) | did not register an increase in LH | No | 10.49 | 11.23 | 9.43 | 11.26 | 14 mm and 12 mm | 14.4 mm and 13.6 mm | 8.96 mIU/ml and 12.02 mIU/ml | 9.32 mIU/ml and 13.14 mIU/ml | 8.65 mIU/ml and 10.21 mIU/ml | 8.98 mIU/ml and 13.54 mIU/ml | 2.21 | 2.15 |  |  | Plasma LH response to GnRH challenge ([1]; listed as abarelix): block the GnRH-induced LH release; Ovulation (Yes/No) within 48 hr of GnRH treatment ([1]; listed as abarelix): prevent GnRH-induced ovulations; Effect on LH suppression (bovine pituitary cells; 1 nM GnRH challenge): no effect; Effect on LH concentration (bovine pituitary cells; 10 nM challenge): modest decrease
2 | CC(=O)N[C@H](Cc1ccc2ccccc2c1)C(=O)N[C@H](Cc1ccc(Cl)cc1)C(=O)N[C@H](Cc1cccnc1)C(=O)N[C@@H](CO)C(=O)N[C@@H](Cc1ccc(NC(=O)[C@@H]2CC(=O)NC(=O)N2)cc1)C(=O)N[C@H](Cc1ccc(NC(N)=O)cc1)C(=O)N[C@@H](CC(C)C)C(=O)N[C@@H](CCCCNC(C)C)C(=O)N1CCC[C@H]1C(=O)N[C@H](C)C(N)=O [Degarelix, N-acetyl-3-(2-naphthyl)-D-alanyl-4-chloro-D-phenylalanyl-3-(3-pyridyl)-D-alanyl-L-seryl-4-((S)-dihydroorotamido)-L-phenylalanyl-4-ureido-D-phenylalanyl-L-leucyl-N6-isopropyl-L-lysyl-L-prolyl-D-alaninamide] (Ac-[d2Nal][dPhe(4-Cl)][d3Pal]S[Phe(4-NH2)](Dihydroorotyl(S))[dPhe(4-NHCONH2)]L[Lys(iPr)]P[dA]-NH2) | did not register an increase in LH | No | 8.60 | 8.62 | 8.14 | 8.89 | 12 mm and 13.2 mm | 14 mm and 15.1 mm | 4.87 mIU/ml and 12.32 mIU/ml | 5.25 mIU/ml and 11.98 mIU/ml | 5.54 mIU/ml and 10.74 mIU/ml | 5.37 mIU/ml and 12.41 mIU/ml | 1.33 | 1.21 |  |  | Plasma LH response to GnRH challenge ([1]; listed as degarelix): block the GnRH-induced LH release; Ovulation (Yes/No) within 48 hr of GnRH treatment ([1]; listed as degarelix): prevent GnRH-induced ovulations
3 | CONC(=O)Nc1ccc(-c2sc3c(c2CN(C)C)c(=O)n(-c2ccc(OC)nn2)c(=O)n3Cc2c(F)cccc2F)cc1 [Relugolix, 1-[4-[1-[(2,6-difluorophenyl)methyl]-5-[(dimethylamino)methyl]-3-(6-methoxypyridazin-3-yl)-2,4-dioxothieno[2,3-d]pyrimidin-6-yl]phenyl]-3-methoxyurea] | did not register an increase in LH | No | 13.94 | 6.97 | 18.48 | 19.92 | 10 mm | 9.8 mm and 12.1 mm | 22.66 mIU/ml and 5.22 mIU/ml | 9.71 mIU/ml and 4.23 mIU/ml | 30.96 mIU/ml and 5.99 mIU/ml | 33.09 mIU/ml and 6.75 mIU/ml | 1.72 | 1.47 |  |  | Plasma LH response to GnRH challenge ([1]; listed as relugolix): block the GnRH-induced LH release; Ovulation (Yes/No) within 48 hr of GnRH treatment ([1]; listed as relugolix): prevent GnRH-induced ovulations
4 | CC(=O)Nc1ccc(C[C@H](NC(=O)[C@H](CO)NC(=O)[C@@H](Cc2cccnc2)NC(=O)[C@@H](Cc2ccc(Cl)cc2)NC(=O)[C@@H](Cc2ccc3ccccc3c2)NC(C)=O)C(=O)N[C@H](Cc2ccc(NC(C)=O)cc2)C(=O)N[C@@H](CC(C)C)C(=O)N[C@@H](CCCCNC(C)C)C(=O)N2CCC[C@H]2C(=O)N[C@H](C)C(N)=O)cc1 [acyline, N-acetyl-3-(2-naphthyl)-D-alanyl-4-chloro-D-phenylalanyl-3-(3-pyridyl)-D-alanyl-L-seryl-4-acetamido-L-phenylalanyl-4-acetamido-D-phenylalanyl-L-leucyl-N6-isopropyl-L-lysyl-L-prolyl-D-alaninamide] (Ac-[d2Nal][dPhe(4-Cl)][d3Pal]S[Phe(4-NH2)](Ac)[dPhe(4-NH2)](Ac)L[Lys(iPr)]P[dA]-NH2) |  |  |  |  |  |  |  |  |  |  |  |  |  |  |  |  | Maximum diameter of dominant follicle (dominant follicle): 7.7 mm
5 | Abarelix (Abarelix acetate) (peptide) |  |  |  |  |  |  |  |  |  |  |  |  |  |  | 2.21 | 2.15 | 
6 | Degarelix (Degarelix acetate) (peptide) |  |  |  |  |  |  |  |  |  |  |  |  |  |  | 1.33 | 1.21 | 
